Data reported in PubChem BioAssay (NCI).
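Interpolation was linear, between the two tested concentrations surrounding the appropriate level; five concentrations were tested over 48 hours in 96-well plates. GI50 is the concentration that inhibits growth by half. TGI denotes the concentration required for complete inhibition of growth.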

What was measured:
Assay in all cases: NCI anticancer screen, dose series, 48 h
[1] = tested on: MOLT-4 leukemia
[2] = tested on: A498 renal
[3] = tested on: IGROV1 ovarian
[4] = tested on: SK-OV-3 ovarian
[5] = tested on: K-562 leukemia
[6] = tested on: MDA-MB-435
[7] = tested on: 786-0 renal
[8] = tested on: HS 578T breast
[9] = tested on: SF-295 CNS
[10] = tested on: UACC-62 melanoma

For `O=C(c1ccccc1)c1ccc(Oc2ccc([N+](=O)[O-])cc2[N+](=O)[O-])cc1`, the GI50 [1] was 3.08 µM, the TGI [1] was > 100 µM and the GI50 [2] was 11 µM. For the same molecule, the TGI [2] was 24.8 µM, the GI50 [3] was 2.39 µM and the TGI [3] was 5.61 µM. The GI50 [4] was 4.09 µM, the TGI [4] was 29.4 µM and the GI50 [5] was 2.63 µM. For the same molecule, the TGI [5] was > 100 µM, the GI50 [6] was 1.82 µM and the TGI [6] was 3.98 µM. The GI50 [7] was 3.46 µM, the TGI [7] was 15.9 µM and the GI50 [8] was 3.46 µM. It also gave a TGI [8] of 38.7 µM, a GI50 [9] of 2.62 µM and a TGI [9] of 8.51 µM. The GI50 [10] was 4.1 µM and the TGI [10] was 32.2 µM.

`NC(=O)c1ccc(NN=O)nc1` was tested, and the TGI [1] was > 100 µM, the TGI [2] was > 100 µM and the TGI [3] was > 100 µM. For the same molecule, the TGI [4] was > 100 µM, the TGI [5] was > 100 µM and the GI50 [6] was > 100 µM. For the same molecule, the TGI [6] was > 100 µM, the TGI [7] was > 100 µM and the TGI [8] was > 100 µM. The TGI [9] was > 100 µM and the TGI [10] was > 100 µM.
